Results as given in US20070111968A1, “1-Aza-dibenzo[e,h]azulenes for the treatment of central nervous system diseases and disorders” (GLAXOSMITHKLINE ISTRAZIVACKI CENTAR ZAGREB D.O.O., priority 2003, published 2007).

Legend:
5-HT2C receptor = target: T1, 5-HT2C receptor (Homo sapiens, UniProt P28335); assay: radioligand binding assay for 5-HT2C receptor ([3H]mesulergine); details: competitive binding
T1 construct: expressed in transfected cells; host or cells: CHO-K1 (or COS-7); alternatively choroid plexus tissue
T1 sequence (P28335 33-458): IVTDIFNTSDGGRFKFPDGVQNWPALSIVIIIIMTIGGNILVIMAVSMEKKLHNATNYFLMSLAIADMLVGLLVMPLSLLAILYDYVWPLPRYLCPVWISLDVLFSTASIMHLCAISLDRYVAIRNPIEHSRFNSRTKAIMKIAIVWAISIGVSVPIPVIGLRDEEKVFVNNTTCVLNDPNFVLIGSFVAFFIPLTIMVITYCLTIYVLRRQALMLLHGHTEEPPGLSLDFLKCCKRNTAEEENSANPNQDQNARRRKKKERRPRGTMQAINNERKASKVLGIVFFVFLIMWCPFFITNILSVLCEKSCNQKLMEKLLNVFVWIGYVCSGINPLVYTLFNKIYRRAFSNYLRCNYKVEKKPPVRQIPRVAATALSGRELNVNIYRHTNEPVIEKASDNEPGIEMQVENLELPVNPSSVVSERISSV
Experimental: (§1) The effect of the compounds of the present invention on the neurochemical steady state was determined by in vitro investigations such as a radionuclide-marked radioligand binding assay for 5-HT2A (Bonhaus D. W. Br. J. Pharmacol. 1995, 115:622; Saucier C. J. Neurochem. 1997, 68:1998) and 5-HT2C receptors (Wolf W. A. J. Neurochem. 1997, 69:1449), in vitro binding assay for σ1 receptor (Thomson W. and Donn R. Arthritis Res. 2002, 4: 302-306) and by in vivo investigations in a tail suspension test (Vogel H. G. and Vogel W. H. Drug Discovery and Evaluation Pharmacological Assays, Springer 1997, 304), in amphethamine-induced hyperlocomotion in mice (Millan M. J. et al, 1998 J. Pharmacol. Exp. Ther. 287: 167-186), in a forced swim test in mice (Porsolt R. D. et al. Arch. Int. Pharmacodyn. 1977, 229:327-336), in meta-chlorophenyl piperazine (m-CPP) test on rats (Drug Dev. Res. 1989, 18:119-144), and in apomorphine, tryptamine, norepinephrine (ATN) test in rats (Arch. Int. […]
(§2) A small concentration of a radioligand having a great affinity for binding to a receptor was incubated with a tissue sample enriched with a certain receptor (1-5 mg of tissue) in a buffered medium (0.2-5 mL). […] When a binding balance was achieved, the receptors to which the radioligand was bound were separated from those to which said ligand was not bound, and the radioactivity of the receptor/radioligand complex was measured. […]

5-HT2A receptor = target: T2, 5-HT2A receptor (Homo sapiens, UniProt P28223); assay: radioligand binding assay for 5-HT2A receptor ([3H]-ketanserin); details: competitive binding
T2 construct: expressed in transfected cells; host or cells: CHO-K1 (or COS-7); alternatively human cortex tissue
T2 sequence (P28223 whole entry): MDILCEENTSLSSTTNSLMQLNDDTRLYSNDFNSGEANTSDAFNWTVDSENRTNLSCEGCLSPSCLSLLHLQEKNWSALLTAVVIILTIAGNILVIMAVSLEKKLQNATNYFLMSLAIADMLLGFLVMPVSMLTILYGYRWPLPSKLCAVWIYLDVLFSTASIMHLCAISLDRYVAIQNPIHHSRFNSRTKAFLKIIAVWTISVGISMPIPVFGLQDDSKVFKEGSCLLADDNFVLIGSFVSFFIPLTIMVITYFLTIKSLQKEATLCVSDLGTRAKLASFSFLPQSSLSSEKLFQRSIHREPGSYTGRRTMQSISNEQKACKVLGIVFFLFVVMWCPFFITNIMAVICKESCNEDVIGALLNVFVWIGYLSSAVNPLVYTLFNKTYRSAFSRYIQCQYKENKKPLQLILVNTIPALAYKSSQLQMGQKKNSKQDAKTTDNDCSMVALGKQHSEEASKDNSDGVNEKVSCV
Experimental: as §1, §2

CN(C)CCOCc1cc2c([nH]1)-c1ccccc1Sc1ccccc1-2 [dimethyl-[2-(1H-8-thia-1-aza-dibenzo[e,h]azulen-2-ylmethoxy)-ethyl]-amine]
IC50 (5-HT2C receptor; choroid plexus or recombinant 5-HT2C in CHO-K1, read-out: binding affinity to 5-HT2C serotonin receptor expressed as IC50 value): < 200 nM | Ki (5-HT2C receptor; choroid plexus or recombinant 5-HT2C in CHO-K1, read-out: binding affinity to 5-HT2C serotonin receptor, Ki value): < 100 nM | IC50 (5-HT2A receptor; human cortex or recombinant 5-HT2A in CHO-K1, read-out: binding affinity to 5-HT2A serotonin receptor expressed as IC50 value): < 200 nM | Ki (5-HT2A receptor; human cortex or recombinant 5-HT2A in CHO-K1, read-out: binding affinity to 5-HT2A serotonin receptor, Ki value): < 100 nM
